# Assay results taken from patent publication US5075287A, “Muramyl peptide derivatives and immunoregulating compositions containing them” (priority 1989, dated 1991).
# Where two headings read alike, the source gives them in different places.
# Legend:
# [1] = system: influenza HA vaccine (B/Nagasaki/1/87 strain); assay type: in vivo, female CDF1 mice; settings: Experiment 2, 8000-fold dilution
# [2] = system: hepatitis B virus surface antigen (HBs); test: Hepatitis-vaccine enhancing activity (adjuvant activity): anti-HBs IgG in mouse serum by ELISA; assay type: in vivo, female CDF1 mice; settings: Experiment 2, 2000-fold dilution
# Description: A compound of the present invention was dissolved in lipidmicrosphere (1 mg/ml). On the other hand, a solution of hepatitis B virus surface antigen (HBs) in physiological saline was prepared (50 μg/ml). The above solutions in equal amounts were mixed to prepare a test solution. A control solution was prepared by the exclusion of the compound of the present invention from said test solution. A mixture of a suspension of aluminium hydroxide gel in physiological saline (1 mg/ml) and said hepatitis vaccine preparation in equal amounts was prepared as another control solution. The test solution (0.2 ml) was intraperitoneally administered to each mouse in one group consisting of seven female CDF1 mice.
# Blood samples were collected from the fundus ocluli vein of each mouse every week after the administration and then centrifuged to obtain serums. Three weeks after the administration, 0.2 ml of the test liquid was intraperitoneally administered again to each mouse for secondary stimulation. Then blood collecting was conducted every week to obtain serums after the application of the secondary stimulation, in the same manner as that described above.
# The amount of the IgG antibodies against the hepatitis B virus surface antigens (HBs) in the serums thus obtained was determined with an ELISA method.
# [3] = 4 W (after secondary stimulation at 3 weeks)
# [4] = 5 W (after secondary stimulation at 3 weeks)
SMILES,Anti HA serum antigen value (average value ± S.D.) ([1]; 1 W),Anti HA serum antigen value (average value ± S.D.) ([1]; 2 W),Anti HA serum antigen value (average value ± S.D.) ([1]; 3 W),"Anti HA serum antigen value (average value ± S.D.) [1, 3]","Anti HA serum antigen value (average value ± S.D.) [1, 4]",Anti-HBs IgG antibody level in serum (ELISA absorbance at 415 nm) ([2]; 1 W),Anti-HBs IgG antibody level in serum (ELISA absorbance at 415 nm) ([2]; 2 W),Anti-HBs IgG antibody level in serum (ELISA absorbance at 415 nm) ([2]; 3 W),"Anti-HBs IgG antibody level in serum (ELISA absorbance at 415 nm) [2, 3]","Anti-HBs IgG antibody level in serum (ELISA absorbance at 415 nm) [2, 4]"
"CCCCCCCCCCCCCCCCCC(=O)OC[C@H]1O[C@H](OC(=O)C[C@@H](CCCCCCCCCCC)OC(=O)CCCCCCCCCCCCC)[C@H](NC(C)=O)[C@@H](O[C@H](C)C(=O)N[C@@H](C)C(=O)N[C@H](CCC(=O)OC)C(N)=O)[C@@H]1O [Example 26, N-[2-0-{2-Acetamido-2,3-dideoxy-6-0-octadecanoyl-1-0-((3R)-3-tetradecanoyloxytetradecanoyl)-α-D-glucopyranos-3-yl}-D-lactoyl]-L-alanyl-D-isogluatmine methylester]",0.004 ± 0.003 O.D 415 nm,0.038 ± 0.001 O.D 415 nm,0.054 ± 0.001 O.D 415 nm,0.208 ± 0.001 O.D 415 nm,0.206 ± 0.002 O.D 415 nm,0.001 ± 0.006 O.D 415 nm,0.015 ± 0.006 O.D 415 nm,0.032 ± 0.008 O.D 415 nm,0.192 ± 0.002 O.D 415 nm,0.163 ± 0.004 O.D 415 nm
"CCCCCCCCCCCCCC(=O)O[C@H](CCCCCCCCCCC)CC(=O)O[C@H]1O[C@H](CO)[C@@H](O)[C@H](O[C@H](C)C(=O)N[C@@H](C)C(=O)N[C@H](CCC(=O)OC)C(N)=O)[C@H]1NC(C)=O [Example 25, N-[2-0-{2-Acetamido-2,3-dideoxy-1-0-((3R)-3-tetradecanoyloxytetradecanoyl}-α-D-glucopyranos-3-yl}-D-lactoyl]-L-alanyl-D-isoglutamine methylester]",0.009 ± 0.001 O.D 415 nm,0.109 ± 0.002 O.D 415 nm,0.149 ± 0.004 O.D 415 nm,0.623 ± 0.019 O.D 415 nm,0.719 ± 0.021 O.D 415 nm,0.004 ± 0.002 O.D 415 nm,0.021 ± 0.001 O.D 415 nm,0.031 ± 0.004 O.D 415 nm,0.402 ± 0.011 O.D 415 nm,0.434 ± 0.021 O.D 415 nm
"CCCCCCCCCCCCCCCCCC(=O)O[C@H](CCCCCCCCCCC)CC(=O)O[C@H]1O[C@H](CO)[C@@H](O)[C@H](O[C@H](C)C(=O)N[C@@H](C)C(=O)N[C@H](CCC(=O)OC)C(N)=O)[C@H]1NC(C)=O [Example 21, N-[2-0-{2-Acetamido-2,3-dideoxy-1-0-((3R)-3-octadecanoyloxytetradecanoyl)-α-D-glucopyranos-3-yl}-D-lactoyl]-L-alanyl-D-isoglutamine methylester]",0 O.D 415 nm,0.060 ± 0.001 O.D 415 nm,0.097 ± 0.002 O.D 415 nm,0.748 ± 0.003 O.D 415 nm,0.758 ± 0.012 O.D 415 nm,0.006 ± 0.004 O.D 415 nm,0.038 ± 0.000 O.D 415 nm,0.058 ± 0.007 O.D 415 nm,0.517 ± 0.006 O.D 415 nm,0.498 ± 0.011 O.D 415 nm
